Consider one compound from patent US4973603A, “Platelet activating factor antagonist and methods of use therefor” (priority 1989, dated 1990).

This test relates to platelet activating factor (PAF). As to the kind of experiment: PAF Induced Paw Edema in the Mouse. The test is classed as in vivo, mouse (Charles River CD-1, female). The following applies: for % Inhibition of Edema: 1 hour before PAF (1 ug/paw), 15 min after PAF. As to the method: The experimental procedure was adapted from Calhoun et al., Agents & Actions, 21:306-309 (1987). Charles River CD-1 female mice (20-25 G) were given a dose of Formula I, or phenidone, using peanut oil as a carrier. Control mice were given doses of the carrier alone. The drugs were administered orally in a 50 μl volume of peanut oil. One hour later, 1.0 μg of PAF dissolved in 50 μl of 5% ethanol-saline was injected subcutaneously into the plantar surface of the right hind paw. The volume of this injected foot to the level of the lateral malleous was measured by water displacement immediately before drug administration and again 15 minutes after PAF injection.
The effectiveness of each compound was analyzed in the following manner. The individual paw volumes were compared by a paired t test analysis in which predrug paw volumes were compared to paw volumes 15 minutes after PAF injection to determine the level of statistical significance. The percent inhibition of edema volume was obtained from the ratio of the mean predrug volume to the mean volume after PAF.

As to `CCCCCc1cc(O)c2c(c1)OC(C)(C)C1CC=C(C(=O)O)CC21` (stereo not shown) [Formula I, 6a,7,10,10a-tetrahydro-6,6-dimethyl-9-carboxyl-3-pentyl-6H-dibenzo[b,d]pyran-1-ol], the “% Inhibition of Edema” value runs as follows: (10 mg/kg oral) 21.8%; (20 mg/kg oral) 50.2%; (40 mg/kg oral) 46.2%. In addition, the “antagonism of inflammatory actions of PAF (in words)” value (mouse paw edema, oral) is recorded as “effective antagonist to the inflammatory actions of PAF”.
